Measurements as given in article PMC10057977, “Use of In Vivo Imaging and Physiologically-Based Kinetic Modelling to Predict Hepatic Transporter Mediated Drug–Drug Interactions in Rats” (Pharmaceutics, 2023).
Where two headings read alike, the source gives them in different places.

How the values were obtained:
[1] = Compartmental pharmacokinetic models of test drugs fitted to published rat data
Description: For all the selected drugs, compartmental pharmacokinetic models were developed to inform dose selection in the DCE-MRI studies. The one-compartment, two-compartment, or three-compartment pharmacokinetic models, following intravenous and oral administration, were fitted to published pharmacokinetic data for these drugs in rats. The models assumed linear pharmacokinetics of the six drugs investigated, to allow identification of the model parameters with the limited available rat pharmacokinetic data. […] The model equations, sources of pharmacokinetic data, parameters estimates, and criteria for the dose selection for all the drugs are reported in the Supplementary Material, Section S1. […]
The University of Manchester, Manchester M13 9PL, UK […]
S1. Pharmacokinetic models for test compounds
Pharmacokinetic models were developed for selected test compounds to inform dose selection in the dynamic contrast enhanced magnetic resonance imaging (DCE-MRI) studies, as described below. The one-compartment (Eq. S1–
Eq. S2), two-compartment (Eq. S3–Eq. S5), or three-compartment pharmacokinetic model (Eq. S6 –Eq. S9), following intravenous (IV) and oral administration, was fitted to available pharmacokinetic data in rat (Table S1). The precision of the parameter estimates (% coefficient of variation; CV) was calculated as described previously. […]
dA1(t) = R + k ∙A (t) − k ∙A (t) for 0 < t < Tinf […]
dA1(t)= ka ∙AG(t) − k10 ∙ A1(t) for t > Tinf S1 […]
dA1(t) = R + k ∙A (t) − (k + k )A (t) + k ∙A (t) for 0 < t < Tinf […]
dA1(t) = k ∙A (t) − (k + k )A (t) + k ∙ A (t) for t > Tinf
dA2(t)= k A (t) − k A (t) S4
dA1(t) = Rinf − (k10 + k12 + k13)A1(t) + k21 ∙ A2(t) + k31 ∙ A3(t) for 0 < t < Tinf […]
dA1(t) = −(k + k + k )A (t) + k ∙ A (t) + k ∙ A (t) for t > Tinf
dA2(t) = k A (t) − k A (t) S7
dA3(t) = k A (t) − k A (t) S8
Initial conditions for oral dose and IV bolus (Rinf=0):
• Oral dose: AG(0) = dose ∙F, all the other compartments equal to 0;
• IV bolus: A1(0) = dose, all the other compartments equal to 0.
Where t is time, An(t) is amount in compartment n at time t; Rinf is IV infusion rate; Tinf is the duration of IV infusion; ka, k10, k12, k21, k13 and k31 are rate constants; V1 is volume of compartment 1; F is oral bioavailability; and Y is the meas-ured drug concentration in plasma or blood.
These models assume linear kinetics of the test compounds, despite known non-linearity in pharmacokinetics for […]
The assumption of linear kinetics allowed simplification of the modelling exercise and enabled identification of the model parameters with the available pharmacokinetic data. The models were used to simulate test compound concentrations in plasma under different dosing schedules, to determine suitable doses for in vivo DCE-MRI studies.

[2] = system: rNtcp; design: method as in PMID 16258024, PMID 29891589, PMID 21415249, PMID 11883641, PMID 15550721; conditions: in vitro; cited from earlier work
[3] = target: rMrp2 (Rattus norvegicus, UniProt Q63120); design: method as in PMID 16258024, PMID 29891589, PMID 21415249, PMID 11883641, PMID 15550721; conditions: in vitro; NI = reported not to inhibit the transporter; cited from earlier work
Chain of rMrp2 (Q63120 whole entry): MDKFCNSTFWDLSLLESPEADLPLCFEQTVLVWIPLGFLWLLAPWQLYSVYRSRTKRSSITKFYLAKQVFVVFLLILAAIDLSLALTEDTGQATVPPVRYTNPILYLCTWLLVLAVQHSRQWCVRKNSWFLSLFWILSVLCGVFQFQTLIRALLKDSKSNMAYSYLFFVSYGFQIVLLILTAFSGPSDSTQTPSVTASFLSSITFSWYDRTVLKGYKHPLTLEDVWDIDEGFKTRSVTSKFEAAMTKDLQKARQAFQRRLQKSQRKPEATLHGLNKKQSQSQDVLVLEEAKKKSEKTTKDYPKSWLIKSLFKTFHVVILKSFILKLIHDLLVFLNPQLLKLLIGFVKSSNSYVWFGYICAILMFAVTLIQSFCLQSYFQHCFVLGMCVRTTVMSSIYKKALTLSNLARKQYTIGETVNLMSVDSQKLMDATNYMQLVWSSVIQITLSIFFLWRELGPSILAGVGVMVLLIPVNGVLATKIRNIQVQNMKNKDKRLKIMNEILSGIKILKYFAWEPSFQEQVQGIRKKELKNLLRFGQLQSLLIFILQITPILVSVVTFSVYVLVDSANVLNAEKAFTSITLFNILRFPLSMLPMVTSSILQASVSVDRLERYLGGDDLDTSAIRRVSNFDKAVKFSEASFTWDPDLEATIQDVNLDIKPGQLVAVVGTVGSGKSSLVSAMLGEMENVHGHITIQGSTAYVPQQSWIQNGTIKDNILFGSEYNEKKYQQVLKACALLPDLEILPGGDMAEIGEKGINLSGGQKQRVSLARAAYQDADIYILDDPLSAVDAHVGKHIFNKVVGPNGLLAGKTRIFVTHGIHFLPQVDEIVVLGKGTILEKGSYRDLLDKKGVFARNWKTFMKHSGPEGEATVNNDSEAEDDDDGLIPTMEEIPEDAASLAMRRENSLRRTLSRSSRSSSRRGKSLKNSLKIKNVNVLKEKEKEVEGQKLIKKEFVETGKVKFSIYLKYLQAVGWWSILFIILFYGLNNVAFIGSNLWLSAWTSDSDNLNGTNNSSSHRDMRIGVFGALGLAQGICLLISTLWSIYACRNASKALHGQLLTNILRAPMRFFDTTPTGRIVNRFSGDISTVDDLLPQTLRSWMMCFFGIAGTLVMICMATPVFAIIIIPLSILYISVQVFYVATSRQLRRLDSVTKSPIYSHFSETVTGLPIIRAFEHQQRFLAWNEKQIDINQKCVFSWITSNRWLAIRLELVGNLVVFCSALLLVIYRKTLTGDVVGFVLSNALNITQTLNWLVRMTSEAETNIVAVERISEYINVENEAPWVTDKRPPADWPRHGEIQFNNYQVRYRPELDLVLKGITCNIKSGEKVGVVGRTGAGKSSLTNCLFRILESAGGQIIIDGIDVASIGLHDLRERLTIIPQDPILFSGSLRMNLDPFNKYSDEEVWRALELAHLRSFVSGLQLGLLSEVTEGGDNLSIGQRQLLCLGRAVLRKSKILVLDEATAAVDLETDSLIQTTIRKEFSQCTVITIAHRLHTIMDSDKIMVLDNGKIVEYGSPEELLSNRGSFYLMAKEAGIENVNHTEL

[4] = cited from earlier work
[5] = unbound concentration ratio between hepatocyte and plasma; ref supplement [39] rifampicin, [40] asunaprevir, [41] bosentan, ciclosporin, ketoconazole; cited from earlier work
[6] = system: OATP1B; design: method as in supplement [18]; conditions: plasma AUC ratio; ref supplement [18]; cited from earlier work
[7] = system: NTCP; design: method as in earlier work; conditions: in vitro; ref 30,43-55 and in-house data from Merck & Co.; cited from earlier work
[8] = fraction unbound in plasma; cited from earlier work
[9] = design: method as in supplement [33]; conditions: clinical; ref supplement [33]; cited from earlier work
[10] = in vivo; cited from earlier work
[11] = two-compartment model, rat plasma, fitted to published IV data
[12] = three-compartment model, rat, IV data (ciclosporin: blood; bosentan: plasma, example estimates)
[13] = one-compartment model, rat, fitted to published PK data

Compound | V1 [1, 11] | k10 [1, 11] | k12 [1, 11] | k21 [1, 11] | IC50 [2] | IC50 [3] | Kpuu [5] | IC50 [7] | fu [8] | V1 [1, 13] | other results
C=C[C@@H]1C[C@]1(NC(=O)[C@@H]1C[C@@H](Oc2ncc(OC)c3ccc(Cl)cc23)CN1C(=O)[C@@H](NC(=O)OC(C)(C)C)C(C)(C)C)C(=O)NS(=O)(=O)C1CC1 [Asunaprevir] | 96.0 mL | 6.79 h⁻¹ | 3.71 h⁻¹ | 1.60 h⁻¹ | 0.6 µM | 11 µM | 11.5 | – | – | – | Cmax ([4]; human plasma, daily dose 200 mg (asunaprevir), read-out: Cmax (µM) [Daily Dose]): 0.76 µM; AUCR of rosuvastatin (presence vs absence of inhibitor) [6]: < 2 fold
COc1ccccc1Oc1c(NS(=O)(=O)c2ccc(C(C)(C)C)cc2)nc(-c2ncccn2)nc1OCCO [Bosentan] | 32 mL | 5.0 h⁻¹ | 3.8 h⁻¹ | 3.5 h⁻¹ | 0.4 µM | – | 3 | 18 µM | <0.02 | – | k10 ([1]; three-compartment model, rat, IV data (ciclosporin: blood; bosentan: plasma, example estimates highly sensitive to initial estimates)): 5.1 h⁻¹; K31 [1, 12]: 0.13 h⁻¹; V1 [1, 12]: 26 mL; k12 [1, 12]: 6.1 h⁻¹; k13 [1, 12]: 0.90 h⁻¹; k21 [1, 12]: 4.3 h⁻¹; Cmax ([4]; human plasma, daily dose 250 mg, read-out: Cmax (µM) [Daily Dose]): 3.3 µM; treated patients with mild liver dysfunction [9]: about 10%
CCc1ccc(CCOc2ccc(CC3SC(=O)NC3=O)cc2)nc1 (stereo not shown) [Pioglitazone] | – | – | – | – | – | – | – | – | <0.01 | 88 mL | F ([1]; oral bioavailability, one-compartment model, rat): 0.66; Cmax ([4]; human plasma, daily dose 30 mg, read-out: Cmax (µM) [Daily Dose]): 4.8 µM
CO[C@H]1/C=C/O[C@@]2(C)Oc3c(C)c(O)c4c(O)c(c(/C=N/N5CCN(C)CC5)c(O)c4c3C2=O)NC(=O)/C(C)=C\C=C\[C@H](C)[C@H](O)[C@@H](C)[C@@H](O)[C@@H](C)[C@H](OC(C)=O)[C@@H]1C [Rifampicin] | – | – | – | – | – | 20 to 53 µM | – | 277 µM | 0.2 | 182.1 mL | k10 [1, 13]: 0.294 h⁻¹; Cmax ([4]; human plasma, daily dose 600 mg, read-out: Cmax (µM) [Daily Dose]): 0.85 µM; Cmax ([4]; human, ref supplement [17], read-out: typical maximum plasma concentration (Cmax) in clinical studies): 4 to 20 µM
CCOc1ccc(C[C@@H](CN(CCN(CC(=O)[O-])CC(=O)[O-])CC(=O)[O-])N(CC(=O)[O-])CC(=O)[O-])cc1.[Gd+3].[H+].[H+] [gadoxetate, Gadoxetate] | – | – | – | – | – | – | – | – | – | – | hepatic extraction [10]: approx. 20%
